Experimental data reported in PMC6645578 (ACS Omega, 2017).
Where two headings read alike, the source gives them in different places.

What was measured:
EstSP1 [1] = assay: p-nitrophenol release at […] nm, Lineweaver-Burk; format: biochemical, Sphingomonas sp. PAMC 26605; details: 40 °C; 0.1-0.5 mM substrate; 3 min; Table 3 and text print 92.5
EstSP1 [2] = details: 40 °C; 0.1-0.5 mM substrate; 3 min; text prints 247

`CCCC(=O)Oc1ccc([N+](=O)[O-])cc1` [p-nitrophenyl butyrate] was tested, and the Km (EstSP1 [1]) was 92 ± 1.2 µM and the Km (EstSP1 [2]) was 249 ± 7.8 µM.
